According to US8541408B2, “Aminodihydrothiazine derivatives substituted with a cyclic group” (Shionogi & Co., Ltd., priority 2007, dated 2013):

Biological target: Recombinant human BACE-1 (Homo sapiens (Human), UniProt P56817)
Test: Assay of β-secretase-inhibiting activity
Type: biochemical
Conditions: substrate peptide 18 nM, BACE-1 7.4 nM, sodium acetate buffer pH 5.0, 30° C. for 3 hours

Recombinant human BACE-1, sequence (P56817 46-501): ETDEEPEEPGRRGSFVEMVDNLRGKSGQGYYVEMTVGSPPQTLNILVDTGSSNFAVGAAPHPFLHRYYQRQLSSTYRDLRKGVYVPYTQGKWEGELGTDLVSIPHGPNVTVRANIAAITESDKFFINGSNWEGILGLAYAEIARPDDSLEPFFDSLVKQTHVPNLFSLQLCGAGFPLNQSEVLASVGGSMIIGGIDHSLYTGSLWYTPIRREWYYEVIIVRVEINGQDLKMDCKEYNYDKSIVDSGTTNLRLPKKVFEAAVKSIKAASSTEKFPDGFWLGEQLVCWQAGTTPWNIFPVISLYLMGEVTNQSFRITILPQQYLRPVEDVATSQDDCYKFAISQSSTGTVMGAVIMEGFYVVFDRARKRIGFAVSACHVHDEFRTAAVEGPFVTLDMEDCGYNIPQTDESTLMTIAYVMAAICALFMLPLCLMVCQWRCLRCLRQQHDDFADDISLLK

IC50: ≤ 1 µM
SMILES: CC1(C)C[C@@](C)(c2cncc(NC(=O)c3ccc(Cl)cn3)c2)N=C(N)S1 [Compound 604]
